Assays:
Format in all cases: toxicity, cell-based
HEK-293T = assay: Incucyte cell viability with HEK293T; conditions: human, 10 µM, compound concentration 10 uM
Fibroblast = assay: Incucyte cell viability with human fibroblast; conditions: 10 µM, compound concentration 10 uM
U2OS = assay: Incucyte cell viability with U2OS; conditions: human, 10 µM, compound concentration 10 uM
[1] = 0 h, replicate number 1, timepoint 0 hours
[2] = 6 h, replicate number 1, timepoint 6 hours
[3] = 6 h, replicate number 2, timepoint 6 hours
[4] = 12 h, replicate number 1, timepoint 12 hours
[5] = 18 h, replicate number 1, timepoint 18 hours
[6] = 18 h, replicate number 2, timepoint 18 hours
[7] = 24 h, replicate number 1, timepoint 24 hours
[8] = 24 h, replicate number 2, timepoint 24 hours
[9] = 12 h, replicate number 2, timepoint 12 hours
[10] = 0 h, replicate number 2, timepoint 0 hours
Also: filed as whole numbers so only -1 and 0 and 1 occur.

Structure (SMILES)	Growth Rate (HEK-293T; [1])	Growth Rate (HEK-293T; [2])	Growth Rate (HEK-293T; [3])	Growth Rate (HEK-293T; [4])	Growth Rate (HEK-293T; [5])	Growth Rate (HEK-293T; [7])	Growth Rate (HEK-293T; [8])	Growth Rate (Fibroblast; [1])	Growth Rate (Fibroblast; [2])	Growth Rate (Fibroblast; [4])	Growth Rate (Fibroblast; [5])	Growth Rate (Fibroblast; [7])	Growth Rate (U2OS; [1])	Growth Rate (U2OS; [3])	Growth Rate (U2OS; [4])	Growth Rate (U2OS; [5])	Growth Rate (U2OS; [7])	Growth Rate (HEK-293T; [9])	Growth Rate (U2OS; [2])	Growth Rate (U2OS; [9])	also measured
CN([C@@H]1CCc2c(CC(=O)O)c3ccccc3n2C1)S(=O)(=O)c1ccc(F)cc1 [MK-7246]	0	0	1	0	0	0	1	0	0	0	0	0	0	0	1	1	0				Growth Rate (HEK-293T; [6]): 1; Growth Rate (Fibroblast; [9]): 1; Growth Rate (Fibroblast; [6]): 1; Growth Rate (U2OS; [8]): 1
COc1ccc(CNC(=O)c2cc(-c3cncc(Cl)c3)cnc2-c2ccccn2)nc1OC [MK-1064]	0	0		1	0	1	0	0	0	0	1	0	0	0	1	1	1	0			Growth Rate (Fibroblast; [8]): 1; Growth Rate (U2OS; [6]): 0
COc1cc(-c2cn([C@H]3CCc4c(F)cccc4N(CC(F)(F)F)C3=O)nn2)ccc1-n1cnc(C)c1	0	0		0	1	1	0	0	0	1	1	1	0	1	0	0	0		0	1	Growth Rate (HEK-293T; [10]): 1; Growth Rate (Fibroblast; [9]): 0; Growth Rate (Fibroblast; [6]): 0; Growth Rate (Fibroblast; [8]): 0; Growth Rate (U2OS; [6]): 1; Growth Rate (U2OS; [8]): 1
O=C(NCc1ncc(C(F)(F)F)cc1Cl)c1ccc2c(c1)C1(CCS(=O)(=O)CC1)[C@H](C1CC1)N2S(=O)(=O)c1ccc(F)cc1 [BAY-784]	0	1		1	1	1	0	0	0	1		1	0	0	0	0	0	0	1	1	Growth Rate (HEK-293T; [6]): 0; Growth Rate (Fibroblast; [6]): 1; Growth Rate (U2OS; [8]): 1
C[S+]([O-])c1ccc(-c2nc(-c3ccncc3)c(-c3ccc(F)cc3)[nH]2)cc1 (configuration not stated) [SB-203580]	0	0		0	0	0		0						0		1	1			1	Growth Rate (Fibroblast; [3]): 0; Growth Rate (Fibroblast; [9]): 1; Growth Rate (Fibroblast; [6]): 1; Growth Rate (Fibroblast; [8]): 1
CC[C@@H]1[C@H](F)C(=O)N[C@@H]1COc1nccc2cc(C(N)=O)c(OC)cc12 [ZIMLOVISERTIB]	0						1		0	0	0	0	0	1	0	0	0	1	0		Growth Rate (Fibroblast; [10]): 0
CS(=O)(=O)c1cccc(NC(=O)N(Cc2ccc(C(=O)Nc3nn[nH]n3)cc2)c2ccc(C3CCCCC3)cc2)c1	1	1	0	1	1	1	0	0	0	0	0	1	0	1		1	1	0		1	Growth Rate (HEK-293T; [10]): 0; Growth Rate (HEK-293T; [6]): 0
Cn1cnc2c(F)c(Nc3ccc(Br)cc3Cl)c(C(=O)NOCCO)cc21 [SELUMETINIB]	0					1		0				1	1		0	0	0	1	0		Growth Rate (HEK-293T; [10]): 1
CN(C)C(=O)c1ccc(-c2cc(C(=O)N[C@@H]3CCc4ccccc43)no2)cc1O	1		0			1		0	1	0	1	0	0		0	0	1	0	0	1	Growth Rate (Fibroblast; [8]): 1; Growth Rate (U2OS; [6]): 1
O=C(O)[C@@H]1[C@@H](Cn2nnc3ccccc3c2=O)CC[C@H]1C(=O)c1ccc(OCCC2CCOCC2)cc1 [BAY-694]	0	0	1		1	1		0	0	1	1	0	0		1	0	1	0	0		Growth Rate (HEK-293T; [10]): 1; Growth Rate (Fibroblast; [10]): 1; Growth Rate (Fibroblast; [9]): 0; Growth Rate (Fibroblast; [6]): 0; Growth Rate (Fibroblast; [8]): 1; Growth Rate (U2OS; [8]): 0
O=C(c1ccc(F)cc1)N1CC(COc2ccc(Br)cc2)(C(=O)O)C1 [PF-04475866]	0	1	0	1	0	1	0	0				1	1		1	0	1	0	1		Growth Rate (Fibroblast; [6]): 1; Growth Rate (U2OS; [10]): 0; Growth Rate (U2OS; [6]): 1
CC(=O)OCC(=O)[C@@]1(O)CC[C@H]2[C@@H]3CCC4=CC(=O)CC[C@]4(C)[C@@]3(F)[C@@H](O)C[C@@]21C [FLUDROCORTISONE ACETATE]	0	1	0	1	1	1	0	0	0	1	1	1	0	0		1	1			1	Growth Rate (U2OS; [10]): 1
CCOc1cc(N2CCC(O)CC2)ccc1Nc1ncc2c(n1)N(C)c1ccccc1C(=O)N2C	0		1			1	0	1	1	1	1	1	0		1	1	1	1	0		Growth Rate (HEK-293T; [10]): 1; Growth Rate (HEK-293T; [6]): 1; Growth Rate (Fibroblast; [3]): 0; Growth Rate (U2OS; [10]): 1
CCC(=O)Nc1cccc(Oc2nc(Nc3ccc(N4CCN(C)CC4)cc3OC)ncc2Cl)c1		0		0	0	0				0	0	0	0	1	0	0	0		0		Growth Rate (U2OS; [6]): 1
CNC(=NCCSCc1csc(N=C(N)N)n1)NC#N [TIOTIDINE]	1	0		1	0	0		0	1	0	0	0	0	0	1	0	1	0		0	Growth Rate (HEK-293T; [10]): 0; Growth Rate (Fibroblast; [3]): 0; Growth Rate (U2OS; [6]): 1
